# Patent US20070179152A1, “Combination therapy for the treatment of neoplasms” (priority 2003, published 2007)
# Where a name gives a salt, the structure may show the parent alone. Read-outs that look alike come from different tables or passages of the source.
# Columns and labels:
# Type in all cases: cell-based
# HCT116 cells = experiment: Anti-proliferation assay (Alamar Blue metabolism), HCT116; details: Homo sapiens, read-out: Percent inhibition of Alamar Blue Metabolism
# Experimental: (§1) Itraconazole was obtained from […].). Stock solutions (1000×) of each compound were prepared in DMSO and stored at -20° C. Master stock plates of 2-fold serial dilutions of individual compounds were prepared in 384-well plates. Combination matrices of test compounds were generated from these master stock plates by dilution into growth media described above. […] The combination matrices were used immediately and discarded. The anti-proliferation assays were performed in 384 well plates. […] Cells were diluted in culture media such that 3,000 SKMEL cells, or 1,500 cells for all the other cell lines, were delivered in 35 μl of media into each assay well. […] Then, 4.5 μl of 10× stock solutions from the combination matrices were added to 40 μl of culture media. […] Quantification, using the LJL Analyst AD reader (LJL Biosystems), was taken in the middle of the well with high attenuation, a 100 msec read time, an excitation filter at 530 nm, and an emission filter at 575 nm. For some experiments, quantification was performed using a Wallac Victor^2 reader. Measurements were taken at the top of the well with stabilized energy lamp control; a 100 msec read time, an excitation filter at 530 nm, and an emission filter at 590 nm.
# A549 cells = experiment: Anti-proliferation assay (Alamar Blue metabolism), A549; details: Homo sapiens, read-out: Percent inhibition of Alamar Blue Metabolism
# Experimental: as §1
# DU145 cells = experiment: Anti-proliferation assay (Alamar Blue metabolism), DU145; details: Homo sapiens, DU-145; read-out: Percent inhibition of Alamar Blue Metabolism
# Experimental: as §1
# SKMEL-28 cells = experiment: Anti-proliferation assay (Alamar Blue metabolism), SKMEL-28; details: Homo sapiens, SK-MEL-28; read-out: Percent inhibition of Alamar Blue Metabolism
# Experimental: as §1
compound,measurement,setting,value
"CC(C)COCC(CN(Cc1ccccc1)c1ccccc1)N1CCCC1 (stereo not drawn) [Bepridil, beta-((2-methylpropoxy)methyl)-N-phenyl-N-(phenylmethyl)-1-pyrrolidineethanamine]",inhibition at 1.5 µM,"HCT116 cells; HCT-116, itraconazole 0 μM, bepridil 1.5 μM",5.1%
same,inhibition at 3 µM,"HCT116 cells; HCT-116, itraconazole 0 μM, bepridil 3 μM",17.4%
same,inhibition at 6.1 µM,"HCT116 cells; HCT-116, itraconazole 0 μM, bepridil 6.1 μM",54%
same,inhibition at 12 µM,"HCT116 cells; HCT-116, itraconazole 0 μM, bepridil 12 μM",33.2%
same,inhibition at 24 µM,"HCT116 cells; HCT-116, itraconazole 0 μM, bepridil 24 μM",79%
same,inhibition at 48 µM,"HCT116 cells; HCT-116, itraconazole 0 μM, bepridil 48 μM",96.4%
"CCC(C)n1ncn(-c2ccc(N3CCN(c4ccc(OCC5COC(Cn6cncn6)(c6ccc(Cl)cc6Cl)O5)cc4)CC3)cc2)c1=O (centres unmarked) [Itraconazole, itraconazole]",inhibition at 0.44 µM,A549 cells,3.7%
same,inhibition at 0.87 µM,A549 cells,11.5%
same,inhibition at 1.7 µM,A549 cells,2.8%
same,inhibition at 3.5 µM,A549 cells,8%
same,inhibition at 7 µM,A549 cells,6.3%
same,inhibition at 14 µM,A549 cells,7.4%
same,inhibition at 28 µM,A549 cells,9.7%
same,inhibition at 0.44 µM,"HCT116 cells; HCT-116, amiodarone 0 μM, itraconazole 0.44 μM",-2.8%
same,inhibition at 0.87 µM,"HCT116 cells; HCT-116, amiodarone 0 μM, itraconazole 0.87 μM",1.9%
same,inhibition at 1.7 µM,"HCT116 cells; HCT-116, amiodarone 0 μM, itraconazole 1.7 μM",8.5%
same,inhibition at 3.5 µM,"HCT116 cells; HCT-116, amiodarone 0 μM, itraconazole 3.5 μM",17.5%
same,inhibition at 7 µM,"HCT116 cells; HCT-116, amiodarone 0 μM, itraconazole 7 μM",20.4%
same,inhibition at 14 µM,"HCT116 cells; HCT-116, amiodarone 0 μM, itraconazole 14 μM",19.1%
same,inhibition at 28 µM,"HCT116 cells; HCT-116, amiodarone 0 μM, itraconazole 28 μM",16%
same,inhibition at […],"HCT116 cells; HCT-116, amiodarone 0 μM, itraconazole […]",-0.7%
same,inhibition at 0.44 µM,"HCT116 cells; HCT-116, itraconazole 0.44 μM, bepridil 0 μM",-1.4%
same,inhibition at 0.44 µM,"HCT116 cells; HCT-116, itraconazole 0.44 μM, nicardipine 0 μM",-0.5%
same,inhibition at 0.87 µM,"HCT116 cells; HCT-116, itraconazole 0.87 μM, bepridil 0 μM",13.3%
same,inhibition at 0.87 µM,"HCT116 cells; HCT-116, itraconazole 0.87 μM, nicardipine 0 μM",12.3%
same,inhibition at 1.7 µM,"HCT116 cells; HCT-116, itraconazole 1.7 μM, bepridil 0 μM",26.4%
same,inhibition at 1.7 µM,"HCT116 cells; HCT-116, itraconazole 1.7 μM, nicardipine 0 μM",15.4%
same,inhibition at 3.5 µM,"HCT116 cells; HCT-116, itraconazole 3.5 μM, bepridil 0 μM",30.3%
same,inhibition at 3.5 µM,"HCT116 cells; HCT-116, itraconazole 3.5 μM, nicardipine 0 μM",20.1%
same,inhibition at 7 µM,"HCT116 cells; HCT-116, itraconazole 7 μM, bepridil 0 μM",33.1%
same,inhibition at 7 µM,"HCT116 cells; HCT-116, itraconazole 7 μM, nicardipine 0 μM",32.7%
same,inhibition at 14 µM,"HCT116 cells; HCT-116, itraconazole 14 μM, bepridil 0 μM",17.8%
same,inhibition at 14 µM,"HCT116 cells; HCT-116, itraconazole 14 μM, nicardipine 0 μM",19.8%
same,inhibition at 28 µM,"HCT116 cells; HCT-116, itraconazole 28 μM, bepridil 0 μM",17.2%
same,inhibition at 28 µM,"HCT116 cells; HCT-116, itraconazole 28 μM, nicardipine 0 μM",22.4%
same,inhibition at […],"HCT116 cells; HCT-116, itraconazole […], bepridil 0 μM",5.8%
same,inhibition at […],"HCT116 cells; HCT-116, itraconazole […], nicardipine 0 μM",3%
same,inhibition at 0.44 µM,DU145 cells,-1.6%
same,inhibition at 0.87 µM,DU145 cells,4.9%
same,inhibition at 1.7 µM,DU145 cells,-4.2%
same,inhibition at 3.5 µM,DU145 cells,-10.1%
same,inhibition at 7 µM,DU145 cells,-13%
same,inhibition at 14 µM,DU145 cells,-4.3%
same,inhibition at 28 µM,DU145 cells,-4.6%
same,inhibition at 0.44 µM,SKMEL-28 cells,1.5%
same,inhibition at 0.87 µM,SKMEL-28 cells,4.4%
same,inhibition at 1.7 µM,SKMEL-28 cells,6.6%
same,inhibition at 3.5 µM,SKMEL-28 cells,10.4%
same,inhibition at 7 µM,SKMEL-28 cells,12.6%
same,inhibition at 14 µM,SKMEL-28 cells,14%
same,inhibition at 28 µM,SKMEL-28 cells,15%
"COC(=O)C1=C(C)NC(C)=C(C(=O)OCCN(C)Cc2ccccc2)C1c1cccc([N+](=O)[O-])c1 (centres unmarked) [Nicardipine, 2-(benzyl-methylamino)ethyl methyl 1,4-dihydro-2,6-dimethyl-4-(m-nitrophenyl)-3,5-pyridinedicarboxylate monohydrochloride]",inhibition at 0.3 µM,"HCT116 cells; HCT-116, itraconazole 0 μM, nicardipine 0.3 μM",2.6%
same,inhibition at 0.61 µM,"HCT116 cells; HCT-116, itraconazole 0 μM, nicardipine 0.61 μM",1.4%
same,inhibition at 1.2 µM,"HCT116 cells; HCT-116, itraconazole 0 μM, nicardipine 1.2 μM",2.5%
same,inhibition at 2.4 µM,"HCT116 cells; HCT-116, itraconazole 0 μM, nicardipine 2.4 μM",5.2%
same,inhibition at 4.8 µM,"HCT116 cells; HCT-116, itraconazole 0 μM, nicardipine 4.8 μM",7.5%
same,inhibition at 9.7 µM,"HCT116 cells; HCT-116, itraconazole 0 μM, nicardipine 9.7 μM",9.7%
same,inhibition at 19 µM,"HCT116 cells; HCT-116, itraconazole 0 μM, nicardipine 19 μM",25.2%
same,inhibition at 39 µM,"HCT116 cells; HCT-116, itraconazole 0 μM, nicardipine 39 μM",81.7%
